{
  "source": "patent US11559545B2",
  "about": "“Inhibition of UCHL1 in high-grade serous ovarian cancer” (The Trustees of Indiana University, priority 2019, dated 2023)",
  "key": {"UCHL1 [1]": {"tested_on": "UCHL1", "assay": "Relative UCHL1 expression (qPCR) after DNA methylase inhibitor treatment in ovarian cancer cells", "assay_type": "cell-based", "conditions": "200 μM, day 2, HGSOC cell lines with mutant p53, FIG. 7I", "description": "FIG. 7A depicts relative UCHL1 expression (qPCR) after treatment with DNA methylase inhibitor, 5AzaDC (200 μM, day3) in ovarian cancer cells. The following cell cultures were included in the analysis: HeyA8 (WT p53), SKOV3 (p53 null), OVCAR5 (p53 null), Kuramochi (mutant p53), and OVCAR4 (mutant p53).\nFIG. 7H depicts relative UCHL1 expression (qPCR) after treatment with DNA methylase inhibitor, 5AzaDC (200 μM, day 2) in ovarian cancer cells with wild-type p53 (HeyA8 and A2780), ovarian cancer cells with p53-null mutations (OVCAR5 and SKOV3) and normal fallopian tube cells with wild-type p53 (FTE282).\nFIG. 7I illustrates that no change in UCHL1 levels were detected with treatment with DNA methylase inhibitor 5AzaDC (200 μM, day 2) in HGSOC cell lines with mutant p53."}, "[2]": {"tested_on": "HGSOC primary and metastatic tumors", "assay": "Transgenic TKO mouse model of HGSOC: growth and progression of primary and metastatic tumors after UCHL1 inhibition", "assay_type": "in vivo", "text": "Triple mutant (TKO) mice are Pten and Dicer knockout and overexpress mutant p53 R172H (corresponding to human R175H mutant) (Pten−/− Dicer−/− and p53-R172H). These mice spontaneously developed primary tumors in the fallopian tube at age 4 months, which metastasize to other organs by 5-6 months. This model recapitulates metastatic tumor growth as in ovarian cancer patients. […] The tumors are circled using a dotted line and/or indicated with arrows.\nFIGS. 11B and 11C illustrate the reduction in primary HGSOC tumor size with LDN treatment in mice aged 4-6 months."}, "PSMA7": {"tested_on": "PSMA7", "assay": "PSMA7 RNA and protein levels in treated TKO mice", "assay_type": "in vivo, mouse", "conditions": "treated TKO mice vs untreated TKO control, FIG. 12E"}, "Proteasome": {"tested_on": "Proteasome", "assay": "Proteasome activity in treated TKO mice", "assay_type": "in vivo, mouse", "conditions": "treated TKO mice vs TKO CTL mice, FIG. 12E"}, "UCHL1 [3]": {"tested_on": "UCHL1", "conditions": "cited from earlier work"}},
  "data": [
    {"smiles": "Nc1ncn([C@H]2C[C@H](O)[C@@H](CO)O2)c(=O)n1", "note": "[5AzaDC]", "values": [
      {"measurement": "UCHL1 levels", "setting": "UCHL1 [1]", "result": "no change"}
    ]},
    {"smiles": "CC(=O)O/N=C1\\C(=O)N(Cc2cc(Cl)ccc2Cl)c2ccc(Cl)cc21", "note": "[LDN-57444]", "values": [
      {"measurement": "primary tumor", "setting": "[2]; TKO mice (Pten-/- Dicer-/- p53-R172H) vs TKO control, FIG. 11A", "result": "visible reduction"},
      {"measurement": "metastatic tumors in the omentum, diaphragm, mesentery, and peritoneal wall", "setting": "[2]; TKO mice vs TKO control, FIG. 11A", "result": "absence"},
      {"measurement": "primary HGSOC tumor size", "setting": "[2]; mice aged 4-6 months, FIGS. 11B and 11C", "result": "reduction"},
      {"measurement": "PSMA7 RNA levels", "setting": "PSMA7", "result": "reduced"},
      {"measurement": "PSMA7 protein levels", "setting": "PSMA7", "result": "reduced"},
      {"measurement": "Proteasome activity", "setting": "Proteasome", "result": "significantly reduced"},
      {"measurement": "mode of UCHL1 inhibition", "setting": "UCHL1 [3]", "result": "competitive, reversible, active site-directed inhibitor"}
    ]}
  ]
}
